# Data as given in US8183380B2, “2-aminoquinolines” (Hoffmann-La Roche Inc., priority 2008, dated 2012).
# Where a name gives a salt, the structure may show the parent alone.
# Target: T1, recombinant human 5-HT5A receptor (Homo sapiens, UniProt P47898)
# T1 construct: expressed in transfected cells; host or cells: HEK-EBNA (Human Embryonic Kidney-EBNA) cells, transient cDNA expression; membranes
# Test: [3H]LSD radioligand binding assay
# Conditions: [3H]LSD (approximately 1 nM); membranes from transiently expressed 5-HT5A receptors in HEK-EBNA cells; Ki from IC50 by Cheng-Prussoff equation
# Protocol: A [^3H]LSD radioligand binding assay was used to determine the affinity of the compounds for the recombinant human 5-HT5A receptor, in membranes from transiently (cDNA) expressed 5-HT5A receptors in Human Embryonic Kidney-EBNA (HEK-EBNA) cells. Assay buffer consisted of Tris (50 mM) buffer containing 1 mM EGTA, 10 mM MgCl2 (pH 7.4) and 10 μM pargyline. The binding assay was carried out in 96-well-plates in the presence of [^3H]LSD (approximately 1 nM), approximately 2 μg/well of membrane protein, and 0.5 mg of Ysi-poly-1-lysine SPA beads in a final volume of 200 μl of buffer. Non-specific binding was defined using methiothepin 2 μM. Compounds were tested at 10 concentrations. All assays were conducted in duplicate and repeated at least two times. Assay plates were incubated for 120 min at room temperature before centrifugation. Bound ligand was determined using a Packard Topcount scintillation counter. IC50 values were calculated using a non-linear curve fitting program and Ki values calculated using the Cheng-Prussoff equation.
# T1 sequence (P47898 whole entry): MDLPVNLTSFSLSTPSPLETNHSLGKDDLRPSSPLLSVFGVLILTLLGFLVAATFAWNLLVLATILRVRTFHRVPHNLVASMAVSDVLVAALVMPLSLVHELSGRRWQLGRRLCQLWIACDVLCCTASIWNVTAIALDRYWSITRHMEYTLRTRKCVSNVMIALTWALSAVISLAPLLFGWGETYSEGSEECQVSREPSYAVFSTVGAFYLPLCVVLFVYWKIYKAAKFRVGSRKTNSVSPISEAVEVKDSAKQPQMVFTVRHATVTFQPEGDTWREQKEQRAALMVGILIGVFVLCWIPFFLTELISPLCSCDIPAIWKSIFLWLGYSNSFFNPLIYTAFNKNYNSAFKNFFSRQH
row,SMILES,Ki [nM]
1,"COc1cccc2c1C(Nc1ccc3cc(NC(=O)N[C@@H]4C[C@H]5CC[C@@H](C4)N5C(C)C)ccc3n1)CC2 (mixture of isomers) [Example 186, rac-1-((3-exo)-8-Isopropyl-8-aza-bicyclo[3.2.1]oct-3-yl)-3-[2-(7-methoxy-indan-1-ylamino)-quinolin-6-yl]-urea]",5.7
2,"COc1cccc2c1C(Nc1ccc3cc(NC(=O)N(C)[C@@H]4C[C@H]5CC[C@@H](C4)N5C(C)C)ccc3n1)CC2 (mixture of isomers) [Example 188, rac-1-((3-exo)-8-Isopropyl-8-aza-bicyclo[3.2.1]oct-3-yl)-3-[2-(7-methoxy-indan-1-ylamino)-quinolin-6-yl]-1-methyl-urea]",8.5
3,"COc1cccc2c1C(Nc1ccc3cc(NC(=O)NC4CCN(CCO)CC4)ccc3n1)CC2 (racemic) [Example 189, rac-1-[1-(2-Hydroxy-ethyl)-piperidin-4-yl]-3-[2-(7-methoxy-indan-1-ylamino)-quinolin-6-yl]-urea]",1.8
4,"COc1cccc2c1C(Nc1ccc3cc(NC(=O)N(C)C4CCN(CC(C)(C)O)CC4)ccc3n1)CC2 (racemic) [Example 191, rac-1-[1-(2-Hydroxy-2-methyl-propyl)-piperidin-4-yl]-3-[2-(7-methoxy-indan-1-ylamino)-quinolin-6-yl]-1-methyl-urea]",6.9
5,"COc1cccc2c1C(Nc1ccc3cc(NC(=O)C4CC4)ccc3n1)CO2 (racemic) [Example 195, rac-Cyclopropanecarboxylic acid [2-(4-methoxy-2,3-dihydro-benzofuran-3-ylamino)-quinolin-6-yl]-amide]",7.3
6,"O=C(Nc1ccc2nc(NC3CCc4cc(F)ccc43)ccc2c1)NC1CCN(CCO)CC1 (racemic) [Example 197, rac-1-[2-(5-Fluoro-indan-1-ylamino)-quinolin-6-yl]-3-[1-(2-hydroxy-ethyl)-piperidin-4-yl]-urea]",3.5
7,"COc1cccc2c1C(Nc1ccc3cc(NC(=O)N(C)C4CCN(CCO)CC4)ccc3n1)CC2 (racemic) [Example 206, rac-1-[1-(2-Hydroxy-ethyl)-piperidin-4-yl]-3-[2-(7-methoxy-indan-1-ylamino)-quinolin-6-yl]-1-methyl-urea]",6.7
8,"COc1cccc2c1C(Nc1ccc3cc(NC(=O)NC(C)C)ccc3n1)CC2 (single isomer, unassigned; (-)) [Example 13, (−)-1-Isopropyl-3-[2-(7-methoxy-indan-1-ylamino)-quinolin-6-yl]-urea]",0.9
9,"CC(C)NC(=O)Nc1ccc2nc(N[C@@H]3CCc4ccccc43)ccc2c1 [Example 3, 1-[2-((R)-Indan-1-ylamino)-quinolin-6-yl]-3-isopropyl-urea]",2.5
10,"O=C(Nc1ccc2nc(N[C@@H]3CCc4ccccc43)ccc2c1)NC1CCCCC1 [Example 5, 1-Cyclohexyl-3-[2-((R)-indan-1-ylamino)-quinolin-6-yl]-urea]",2.9
11,"CNC(=O)Nc1ccc2nc(N[C@@H]3CCc4ccccc43)ccc2c1 [Example 7, 1-[2-((R)-Indan-1-ylamino)-quinolin-6-yl]-3-methyl-urea]",3.4
12,"CC(C)(C)NC(=O)Nc1ccc2nc(N[C@@H]3CCc4ccccc43)ccc2c1 [Example 8, 1-tert-Butyl-3-[2-((R)-indan-1-ylamino)-quinolin-6-yl]-urea]",10.9
13,"NC(=O)Nc1ccc2nc(N[C@@H]3CCc4ccccc43)ccc2c1 [Example 9, [2-((R)-Indan-1-ylamino)-quinolin-6-yl]-urea]",2.9
14,"COCCNC(=O)Nc1ccc2nc(N[C@@H]3CCc4ccccc43)ccc2c1 [Example 17, 1-[2-((R)-Indan-1-ylamino)-quinolin-6-yl]-3-(2-methoxy-ethyl)-urea]",7
15,"CN(C)CCNC(=O)Nc1ccc2nc(N[C@@H]3CCc4ccccc43)ccc2c1 [Example 18, 1-(2-Dimethylamino-ethyl)-3-[2-((R)-indan-1-ylamino)-quinolin-6-yl]-urea]",7.3
16,"O=C(Nc1ccc2nc(N[C@@H]3CCc4ccccc43)ccc2c1)NC1CCOCC1 [Example 19, 1-[2-((R)-Indan-1-ylamino)-quinolin-6-yl]-3-(tetrahydro-pyran-4-yl)-urea]",4
17,"CN1CCC(NC(=O)Nc2ccc3nc(N[C@@H]4CCc5ccccc54)ccc3c2)CC1 [Example 20, 1-[2-((R)-Indan-1-ylamino)-quinolin-6-yl]-3-(1-methyl-piperidin-4-yl)-urea]",1.8
18,"O=C(Nc1ccc2nc(N[C@@H]3CCc4ccccc43)ccc2c1)NC1CC1 [Example 21, 1-Cyclopropyl-3-[2-((R)-indan-1-ylamino)-quinolin-6-yl]-urea]",3.9
19,"O=C(NCC1CC1)Nc1ccc2nc(N[C@@H]3CCc4ccccc43)ccc2c1 [Example 23, 1-Cyclopropylmethyl-3-[2-((R)-indan-1-ylamino)-quinolin-6-yl]-urea]",4.7

row,SMILES,Ki [nM]
1,"O=C(Nc1ccc2nc(N[C@@H]3CCc4ccccc43)ccc2c1)NC1CC2CCC1C2 (stereo partly drawn) [Example 26, 1-Bicyclo[2.2.1]hept-2-yl-3-[2-((R)-indan-1-ylamino)-quinolin-6-yl]-urea]",4.8
2,"CN(CCNC(=O)Nc1ccc2nc(N[C@@H]3CCc4ccccc43)ccc2c1)C1CC1 [Example 32, 1-[2-(Cyclopropyl-methyl-amino)-ethyl]-3-[2-((R)-indan-1-ylamino)-quinolin-6-yl]-urea]",8.2
3,"O=C(Nc1ccc2nc(N[C@@H]3CCc4ccccc43)ccc2c1)NC1CCNCC1 [Example 39, 1-[2-((R)-Indan-1-ylamino)-quinolin-6-yl]-3-piperidin-4-yl-urea]",3.9
4,"O=C(Nc1ccc2nc(N[C@@H]3CCc4ccccc43)ccc2c1)NC1CCN(C2CC2)CC1 [Example 41, 1-(1-Cyclopropyl-piperidin-4-yl)-3-[2-((R)-indan-1-ylamino)-quinolin-6-yl]-urea]",4.1
5,"CC(C)N1CCC(NC(=O)Nc2ccc3nc(N[C@@H]4CCc5ccccc54)ccc3c2)CC1 [Example 42, 1-[2-((R)-Indan-1-ylamino)-quinolin-6-yl]-3-(1-isopropyl-piperidin-4-yl)-urea]",2.4
6,"COCCN1CCC(NC(=O)Nc2ccc3nc(N[C@@H]4CCc5ccccc54)ccc3c2)CC1 [Example 43, 1-[2-((R)-Indan-1-ylamino)-quinolin-6-yl]-3-[1-(2-methoxy-ethyl)-piperidin-4-yl]-urea]",2.5
7,"CSCCN1CCC(NC(=O)Nc2ccc3nc(N[C@@H]4CCc5ccccc54)ccc3c2)CC1 [Example 48, 1-[2-((R)-Indan-1-ylamino)-quinolin-6-yl]-3-[1-(2-methylsulfanyl-ethyl)-piperidin-4-yl]-urea]",7.7
8,"O=C(Nc1ccc2nc(N[C@@H]3CCc4ccccc43)ccc2c1)NC1CCN(CCC(F)(F)F)CC1 [Example 63, 1-[2-((R)-Indan-1-ylamino)-quinolin-6-yl]-3-[1-(3,3,3-trifluoro-propyl)-piperidin-4-yl]-urea]",10.4
9,"CN(C)S(=O)(=O)Nc1ccc2nc(N[C@@H]3CCc4ccccc43)ccc2c1 [Example 66, N′-{2-[(1R)-2,3-dihydro-1H-inden-1-ylamino]quinolin-6-yl}-N,N-dimethylsulfamide]",5.6
10,"NS(=O)(=O)Nc1ccc2nc(N[C@@H]3CCc4ccccc43)ccc2c1 [Example 72, N-{2-[(1R)-2,3-dihydro-1H-inden-1-ylamino]quinolin-6-yl}sulfamide hydrochloride]",8.4
11,"O=S(=O)(Nc1ccc2nc(N[C@@H]3CCc4ccccc43)ccc2c1)N1CCCC1 [Example 73, Pyrrolidine-1-sulfonic acid [2-((R)-indan-1-ylamino)-quinolin-6-yl]-amide]",3.2
12,"O=S(=O)(Nc1ccc2nc(N[C@@H]3CCc4ccccc43)ccc2c1)N1CCC(F)(F)C1 [Example 74, 3,3-Difluoro-pyrrolidine-1-sulfonic acid [2-((R)-indan-1-ylamino)-quinolin-6-yl]-amide]",8.9
13,"O=S(=O)(Nc1ccc2nc(N[C@@H]3CCc4ccccc43)ccc2c1)N1CCOCC1 [Example 76, Morpholine-4-sulfonic acid [2-((R)-indan-1-ylamino)-quinolin-6-yl]-amide]",9.9
14,"O=S(=O)(Nc1ccc2nc(N[C@@H]3CCc4ccccc43)ccc2c1)N1CCSCC1 [Example 78, Thiomorpholine-4-sulfonic acid [2-((R)-indan-1-ylamino)-quinolin-6-yl]-amide]",7
15,"O=S(=O)(Nc1ccc2nc(N[C@@H]3CCc4ccccc43)ccc2c1)N1CCC2(CC1)OCCO2 [Example 82, 1,4-Dioxa-8-aza-spiro[4.5]decane-8-sulfonic acid [2-((R)-indan-1-ylamino)-quinolin-6-yl]-amide]",22.2
16,"CN(C1CC1)S(=O)(=O)Nc1ccc2nc(N[C@@H]3CCc4ccccc43)ccc2c1 [Example 85, N-cyclopropyl-N′-{2-[(1R)-2,3-dihydro-1H-inden-1-ylamino]quinolin-6-yl}-N-methylsulfamide]",9.3
17,"O=S(=O)(Nc1ccc2nc(N[C@@H]3CCc4ccccc43)ccc2c1)N1C[C@@H]2C[C@H]1CO2 [Example 88, (1S,4S)-2-Oxa-5-aza-bicyclo[2.2.1]heptane-5-sulfonic acid [2-((R)-indan-1-ylamino)-quinolin-6-yl]-amide]",2.5
18,"COc1cccc2c1C(Nc1ccc3cc(NS(=O)(=O)N4C[C@@H]5C[C@H]4CO5)ccc3n1)CCC2 (stereo partly drawn) [Example 91, (1S,4S)-2-Oxa-5-aza-bicyclo[2.2.1]heptane-5-sulfonic acid [2-(8-methoxy-1,2,3,4-tetrahydro-naphthalen-1-ylamino)-quinolin-6-yl]-amide]",6.8
